# Test results reported in patent publication US10638750B2, “Compositions containing a hollow glucan particle or a cell wall particle encapsulating a terpene component, methods of making and using them” (Eden Research PLC, priority 2004, dated 2020).
# Read-outs that look alike come from different tables or passages of the source.
# Legend:
# Saccharomyces cerevisiae = Saccharomyces cerevisiae MIC assays comparing free terpene emulsions with yeast-encapsulated terpenes; type: cell-based; conditions: free terpene emulsion; for Cidal MIC Free terpene emulsions: re-incubation in fresh medium
# Protocol: One column was designated as a cell-only control and no terpene was added to these wells. Serial 2-fold dilutions were performed by transferring 100 μL from one row to the next a total of 7 times. […] Microtitre plates were incubated statically overnight at 30° C. […] Growth inhibition was visually confirmed by microscopy. For the free terpene emulsions, once the MIC had been determined for each formulation, the microtitre plates were centrifuged and the spent medium was removed from the growth-inhibited wells. The cells were resuspended in fresh medium (100 μL) and the plates were re-incubated overnight at 30° C. Assessment of growth inhibition was performed as before.
# [1] = Citral solution and stable suspension limits; type: physicochemical
# E. coli = conditions: cited from earlier work
# [2] = Terpene stability by formation of a yellow colored oxidation product of citral; type: physicochemical
# S. aureus = assay: MIC of terpene emulsions and fresh or freeze-dried Baker's YP and SAF Mannan encapsulated terpenes; type: cell-based; conditions: for MIC: Staphylococcus aureus
# Protocol: The results of a protocol performed to compare the MIC of fresh versus freeze dried hollow glucan particle encapsulated terpene formulations are shown below in Table 13. A simple terpene emulsion was also tested and the results are shown for comparison.
# H. pylori = conditions: in vitro; cited from earlier work
# [3] = encapsulated in Baker's YP, freeze dried, read-out: MIC μg/ml terpene, Bakers Freeze Dried
# [4] = encapsulated in Baker's YP, fresh, read-out: MIC μg/ml terpene, Bakers Fresh
# [5] = encapsulated in SAF Mannan, freeze dried, read-out: MIC μg/ml terpene, SAF Mannan Freeze Dried
# [6] = encapsulated in SAF Mannan, fresh, read-out: MIC μg/ml terpene, SAF Mannan Fresh
# [7] = terpene emulsion, not encapsulated, read-out: MIC μg/ml terpene, Emulsion
Compound,MIC Free terpene emulsions (Saccharomyces cerevisiae) [ppm],Cidal MIC Free terpene emulsions (Saccharomyces cerevisiae) [ppm],MIC (S. aureus; [3]) [µg/mL],MIC (S. aureus; [4]) [µg/mL],MIC (S. aureus; [5]) [µg/mL],MIC (S. aureus; [6]) [µg/mL],MIC (S. aureus; [7]) [µg/mL],also measured
CC(C)=CCC/C(C)=C/CO [G (1)],250,250,,,,,,
"CC(C)=CCCC(C)=CC=O [Citral, 3,7-dimethyl-2,6-octadien-1-al]",,,0.05,0.01,> 0.03,0.01,0.94,"concentration up to which a solution can be made [1]: about 500 ppm; concentration up to which a stable suspension can be formed [1]: about 2500 ppm; concentration in growth media that reduced the concentration of E. coli (E. coli): more than 0.01%; concentration with bactericidal effect (E. coli): 0.08%; yellow color (citral oxidation product) over time ([2]; aqueous emulsion): turned a progressively increasing yellow color over time; yellow color (citral oxidation product) over time ([2]; encapsulated in Bakers YP): turned a progressively increasing yellow color over time; citral stability (yellow color over time) ([2]; encapsulated in SAF Mannan): increased citral stability; citral stability (absence of yellow colour) ([2]; loaded in SAF Mannan, after 24 hours at 37° C.): remains stable"
CC(C)=CCCC(C)=CC=O (mixture of isomers) [C (4)],125,250,,,,,,
C=CCc1ccc(O)c(OC)c1 [E (2)],125,250,,,,,,
C=C(C)[C@@H]1CC=C(C)C(=O)C1 [L (5)],250,500,,,,,,
L-carvone,,,,,,,,"MIC μg/ml terpene, Bakers Freeze Dried (S. aureus; encapsulated in Baker's YP, freeze dried): >0.04 µg/mL; MIC μg/ml terpene, Bakers Fresh (S. aureus; encapsulated in Baker's YP, fresh): 0.1 µg/mL; MIC μg/ml terpene, SAF Mannan Freeze Dried (S. aureus; encapsulated in SAF Mannan, freeze dried): >0.02 µg/mL; MIC μg/ml terpene, SAF Mannan Fresh (S. aureus; encapsulated in SAF Mannan, fresh): 0.01 µg/mL; MIC μg/ml terpene, Emulsion (S. aureus; terpene emulsion, not encapsulated): 3.75 µg/mL"
"CC(C)=CCC/C(C)=C/CO [Geraniol, geraniol]",,,0.06,0.03,> 0.03,0.02,0.47,concentration that inhibited the growth of H. pylori (H. pylori): 2 mg/L
Cc1ccc(C(C)C)c(O)c1 [T (3)],125,250,,,,,,
"C=CCc1ccc(O)c(OC)c1 [Eugenol, eugenol]",,,0.05,0.03,0.05,0.01,0.12,
